Experimental data: a melting point compilation (Tetko et al.; mined from patent text by program, amines drawn as free bases though some values may be those of a salt)

First: CCOC(=O)C(N=C(c1ccccc1)c1cc(Cl)ccc1NC)C(=O)OCC
Second: CC(=O)Nc1cnc(-c2ccccc2)nc1N
The melting point of the first is lower: 88 °C for the first, 224 to 225 °C for the second.

Compared with `CCCCCCCCCCCCCCCCCC[C@@H]1OC(=O)C(O)=C1O`, `CCCC1=NN=C2C1=C1C=CC=CN1C(=O)C2C#N` (stereo unspecified) is higher in melting point: 110 to 112 °C for the first, 298 to 300 °C for the second.

First: O=c1[nH]c2ncc(-c3ccc(O)cc3)nc2n1C1CCCCC1
Second: COC(=O)c1ccc(-c2ccc(-c3cn([C@H]4CN5CCC4CC5)nn3)s2)cc1F
The melting point of the first is higher: 318 to 320 °C for the first, 250 °C for the second.

First: Cc1oc(-c2ccccc2)nc1COc1ccc(COc2ccccc2CC(=O)O)cn1
Second: O=C(N[C@@H](Cc1c[nH]cn1)C(=O)OCc1ccsc1)C(Cc1cccc2ccccc12)Cc1cccc2ccccc12
The melting point of the first is lower: 123 to 125 °C for the first, 200 to 203 °C for the second.

First: Cc1cc(NC(=O)C(C)(O)COc2ccc(CC#N)cc2)ccc1[N+](=O)[O-] (stereo unspecified)
Second: Cc1c(CNCC(C)C)n(C)c2ccc(NC(=O)c3ccc(OCC4CC4)cc3)cc12
The melting point of the first is higher: 143 to 145 °C for the first, 142 to 143 °C for the second.

First: N#Cc1ccc(OCc2cnsc2)cc1OC(C(=O)O)c1ccccc1Cl (racemic)
Second: CC(=O)NCCOc1ccc2c(-c3ccccc3F)noc2c1Cl
The melting point of the first is higher: 194 to 197 °C for the first, 154 to 155 °C for the second.

Compared with `CC1(C)COc2cc(Br)ccc2C(O)(c2ccccn2)C1` (stereo unspecified), `NC(=O)C(c1ccc(F)c(F)c1)c1ccccn1` (racemic) is higher in melting point: 110 °C for the first, 123 to 124 °C for the second.

First: COC(=O)c1ccc(Cn2c(C(=O)Nc3nc(-c4cc(OC)c(Cl)cc4OC)c(CCC4CCCCC4)s3)cc3cc(C)cc(C)c32)cc1
Second: Cc1nc(-c2cccc(-c3nc4sccn4c3-c3ccnc(N[C@@H]4CCCN(C(=O)OC(C)(C)C)C4)n3)c2)no1
The melting point of the first is higher: 199 to 200 °C for the first, 110 to 112 °C for the second.

First: CCCC1(C(C)C)NC(=S)N(c2cc(Cl)cc(Cl)c2)C1=O (stereo unspecified)
Second: CCOCn1c(C(=O)c2cc(C)cc(C)c2)c(C(C)C)c(=O)[nH]c1=O
The melting point of the first is higher: 160 °C for the first, 120 to 122 °C for the second.

First: CC(C)(C)c1cc(C(=O)c2cccs2)cc(CN2CCSCC2)c1O
Second: CCN1CCN(C2=Nc3cc(Cl)ccc3Sc3ccccc32)CC1
The melting point of the first is higher: 165 to 166 °C for the first, 100 to 101 °C for the second.

First: CN(C)CCNC(=O)Oc1ccc(Cl)cc1Cn1nc(-c2ccc(C(F)(F)F)cc2)oc1=O
Second: O=C(Nc1cc(Cl)ccc1Oc1ccc(Cl)cc1)c1ccncc1
The melting point of the first is lower: 158 to 159 °C for the first, 214 to 215 °C for the second.

First: CC1(C)N=C(c2ccccc2Cl)c2cc(N)ccc2N(CCO)C1=O
Second: CC1(C)CC=Nc2nc(N)c3ccccc3c21
The melting point of the first is lower: 175 to 176 °C for the first, 253 to 260 °C for the second.

First: O=C(O)[C@@H]1Cc2ccccc2C[C@H]1C(=O)O (relative stereo)
Second: CCOc1ncc(C(=O)O)c2ccccc12
The melting point of the first is higher: 229 to 232 °C for the first, 222 °C for the second.

First: O=C1CCC2=C1C(c1ccc(Br)cc1)C1=C(CCS1)N2 (stereo unspecified)
Second: Cc1noc(C2C(=O)Nc3cc(Cl)ccc3C2=O)n1 (stereo unspecified)
The melting point of the first is lower: 253 to 256 °C for the first, over 320 °C for the second.

Compared with `C=C(CNc1ccc2ncnc(Nc3cccc(Br)c3)c2c1)C(=O)OC`, `C=C(c1ccccc1OCCCCl)c1cccc2[nH]ccc12` is lower in melting point: 157 to 162 °C for the first, 70 to 72 °C for the second.

Compared with `COc1ccc(NS(=O)(=O)c2cc(OC)c(OC)c(OC)c2)cc1O`, `COc1cc(I)c(C(=O)Cl)cc1OC` is higher in melting point: 145 to 146 °C for the first, 151 to 154 °C for the second.

Compared with `Cc1cc(N)cnc1-c1ccccc1`, `Nc1ccc(-c2cccnc2)c(C(F)(F)F)c1` is lower in melting point: 93 to 98 °C for the first, 92 to 93 °C for the second.

Compared with `CC(Cc1c[nH]c2ccccc12)(NC(=O)OC1C2CC3CC(C2)CC1C3)C(=O)NC1(CC(=O)O)CCCCC1` (stereo unspecified), `CN(C)C1(c2ccccc2)CCC(NC(=S)NCCCc2ccccc2)CC1` (stereo unspecified) is lower in melting point: 174 °C for the first, 75 to 80 °C for the second.

Compared with `COC(=O)c1cccc2c1-c1ccc3c(c1C(c1ccccc1)O2)C(C)=CC(C)(C)N3` (stereo unspecified), `COc1ccc(CNC(=O)c2[nH]c3ccc(Cl)cc3c2S(=O)(=O)c2ccccc2)cc1` is higher in melting point: 150 to 152 °C for the first, 205 to 206 °C for the second.

First: Cc1cccc(C(=O)O)c1N(C)S(=O)(=O)c1ccc(OCCCNC(=O)c2ccc3c(c2)OCO3)cc1
Second: CC(=O)c1cccc(S(=O)(=O)NCc2ccccc2-c2ccccc2C(=O)NCc2ccccc2)c1
The melting point of the first is lower: 120 °C for the first, 182 °C for the second.

First: CC1OC(=Nc2nccs2)c2c1nc1ccccc1c2O (stereo unspecified)
Second: CCOc1cc(NCCSCc2[nH]cnc2C)nc2ccccc12
The melting point of the first is higher: over 270 °C for the first, 152 to 154 °C for the second.

Compared with `CN1CCN(c2c(F)c(NCc3ccccc3)c3c(c2F)n2c(=O)n(OCc4ccccc4)c(=O)cc2n3C2CC2)CC1`, `Clc1ccccc1C1=NCc2nnc(Cc3ccccc3)n2-c2sc3c(c21)CCNC3` is lower in melting point: 214 °C for the first, 192 °C for the second.

First: CN1CC(CCCl)Oc2ccccc2C1=S (stereo unspecified)
Second: Cc1ccc(S(=O)(=O)OCC2Cc3cc(Cl)cc(-c4ccccc4)c3O2)cc1 (stereo unspecified)
The melting point of the first is lower: 105 to 108 °C for the first, 127 to 130 °C for the second.

First: O=c1[nH]c2cc(Cl)cc(Cl)c2c(=O)n1Cc1ccc([N+](=O)[O-])cc1
Second: O=C1NC(=O)C(CC#Cc2ccc(Cl)cc2)(S(=O)(=O)c2ccccn2)S1 (stereo unspecified)
The melting point of the first is higher: 227 to 230 °C for the first, 140 to 141 °C for the second.

First: Nc1nc(Cl)c(CCCl)c(Cl)n1
Second: CCOC(=O)c1cnc2c(nc(C)n2C)c1Cl
The melting point of the first is higher: 210 to 213 °C for the first, 85 to 90 °C for the second.

First: NP(N)(=O)NC(=O)CCc1ccccc1
Second: CCOC(=O)CC(=O)c1ccc(Br)c(OC)c1F
The melting point of the first is higher: over 300 °C for the first, 52 to 53 °C for the second.

First: CC(C)=Cc1ccc(-c2ccc(C(CC3CCOCC3)c3ccc(S(=O)(=O)C4CC4)cc3)[nH]2)nc1 (stereo unspecified)
Second: O=C(C=Cc1ccc(Cl)cc1)N1CCN(c2ccc(OC[C@H]3CO[C@](Cn4cncn4)(c4ccc(Cl)cc4Cl)O3)cc2)CC1 (relative stereo)
The melting point of the first is lower: 114 to 116 °C for the first, 185 °C for the second.

Compared with `Cc1cc(C(C)(C)C#N)cc(C(C)(C)C#N)c1`, `Cc1ncccc1CC(=NC#N)NC(NC(=O)Cc1ccc(Cl)cc1)C(C)(C)C` (stereo unspecified) is lower in melting point: 126 to 127 °C for the first, 118 to 119 °C for the second.

Compared with `CC(=O)c1ccc(CCN2CCN(c3ccc(Cl)cc3)CC2)cc1`, `COc1ccc(COC(=O)NC(CO)Cc2ccc(O)cc2)cc1` (stereo unspecified) is lower in melting point: 141 to 143 °C for the first, 139 to 141 °C for the second.

First: O=C1CCN2C(=O)OCc3cccc1c32
Second: Cc1ccc(S(=O)(=O)N2Cc3csc(C)c3C2)cc1
The melting point of the first is lower: 130 to 131 °C for the first, 158 to 160 °C for the second.

Compared with `CCOCc1nc2c(N)nc3cc(O)ccc3c2n1CC(C)(C)NS(C)(=O)=O`, `CN(C)S(=O)(=O)c1ccc(C(F)(F)F)cc1N` is lower in melting point: 255 to 256 °C for the first, 65 to 70 °C for the second.

First: COc1ccc(-c2sc3c(c2CN(C)Cc2ccccc2)c(=O)c(C(C)O)cn3Cc2ccccc2F)cc1 (stereo unspecified)
Second: Cc1ccc(S(=O)(=O)NNC2=CC(=O)CC(c3ccccc3Cl)C2)cc1 (stereo unspecified)
The melting point of the first is lower: 183 to 187 °C for the first, 235 to 236 °C for the second.

First: CCn1nc2c(N)nc3c(c2c1CC1(O)CCCCC1)CCCC3
Second: C[Si](C)(C)C#CC1(O)CCCCC1
The melting point of the first is higher: 232 to 234 °C for the first, 72 to 73 °C for the second.

Compared with `CCOC(=O)N(C)S(=O)(=O)c1cc2c(c(Cl)c1Cl)OC(C(=O)O)C2` (stereo unspecified), `Cc1ccc(S(=O)(=O)N[C@@H](C)C(=O)O)cc1` is lower in melting point: 199 to 201 °C for the first, 134 to 135 °C for the second.

Compared with `CCC(C=O)c1ccc(S(C)(=O)=O)cc1` (stereo unspecified), `S=C1CC2Cc3ccc(Cl)cc3C2N1` (stereo unspecified) is higher in melting point: 202 to 204 °C for the first, 225 to 227 °C for the second.

`Cc1cc(C=NNC(N)=S)ncc1NO` showed a melting point of 197 to 198 °C.
